Columns and labels:
[1] = system: Human Umbilical Vein Endothelial Cell (HUVEC); test: Inhibitory effect on growth of human umbilical vein endothelial cell (HUVEC), MTS; format: cell-based; conditions: 10 ng/ml VEGF, absorbance 490 nm
[2] = system: colon and rectal cancer cell line, SW-620; test: Inhibitory effect on growth of cancer cell line SW-620, SRB; format: cell-based; conditions: not having overexpressed EGFR and EGFR2
Summary of the method: (§1)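 Cells were cultured in DMEM with 10% FBS. Compounds were applied at 10 μM with 10-fold serial dilution to 10^−4, DMSO <1%, for 72 h at 37 °C. Cells were then TCA-fixed and stained with 0.4% SRB, and absorbance was read at 570 nm after solubilisation in 10 mM Tris base.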

EGFR1 (HER-1) = EGFR1 (HER-1) (Homo sapiens (Human), UniProt P00533); test: EGFR1 (HER-1) enzyme assay, fluorescence polarization; format: biochemical; conditions: 100 μM ATP, poly(Glu, Tyr) substrate
EGFR1 (HER-1), sequence (P00533 25-1210): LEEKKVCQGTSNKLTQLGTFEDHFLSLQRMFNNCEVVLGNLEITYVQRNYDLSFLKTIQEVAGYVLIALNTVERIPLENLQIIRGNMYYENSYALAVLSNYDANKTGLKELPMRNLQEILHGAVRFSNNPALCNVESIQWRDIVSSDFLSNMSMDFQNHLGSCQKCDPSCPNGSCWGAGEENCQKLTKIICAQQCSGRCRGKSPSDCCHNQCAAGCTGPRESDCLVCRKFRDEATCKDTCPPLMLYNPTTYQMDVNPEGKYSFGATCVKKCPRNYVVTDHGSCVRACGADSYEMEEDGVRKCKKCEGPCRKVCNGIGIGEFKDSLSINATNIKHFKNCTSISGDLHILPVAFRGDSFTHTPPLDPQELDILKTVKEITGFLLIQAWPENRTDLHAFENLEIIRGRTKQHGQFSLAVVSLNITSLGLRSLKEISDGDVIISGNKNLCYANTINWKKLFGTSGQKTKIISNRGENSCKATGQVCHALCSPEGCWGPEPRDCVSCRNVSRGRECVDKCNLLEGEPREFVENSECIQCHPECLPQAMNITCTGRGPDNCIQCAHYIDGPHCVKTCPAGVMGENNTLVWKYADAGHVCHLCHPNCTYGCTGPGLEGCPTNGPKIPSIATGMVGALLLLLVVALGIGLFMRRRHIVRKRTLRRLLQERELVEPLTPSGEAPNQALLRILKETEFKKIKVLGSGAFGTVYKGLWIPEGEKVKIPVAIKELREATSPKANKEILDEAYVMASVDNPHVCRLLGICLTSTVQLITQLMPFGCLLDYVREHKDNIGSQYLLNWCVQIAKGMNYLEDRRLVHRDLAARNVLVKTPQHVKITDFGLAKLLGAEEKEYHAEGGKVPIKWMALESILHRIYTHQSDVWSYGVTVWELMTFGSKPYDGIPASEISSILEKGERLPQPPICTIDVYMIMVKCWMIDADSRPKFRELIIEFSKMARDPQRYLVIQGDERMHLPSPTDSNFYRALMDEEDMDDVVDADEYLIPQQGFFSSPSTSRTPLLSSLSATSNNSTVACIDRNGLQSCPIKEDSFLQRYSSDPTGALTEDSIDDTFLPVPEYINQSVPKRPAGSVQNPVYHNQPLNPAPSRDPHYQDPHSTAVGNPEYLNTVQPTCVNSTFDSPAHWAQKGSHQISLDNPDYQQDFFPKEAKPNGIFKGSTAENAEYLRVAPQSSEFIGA

[3] = system: skin cancer cell line, A431; test: Inhibitory effect on growth of cancer cell line A431, SRB; format: cell-based; conditions: overexpressed EGFR1 (HER-1)
Summary of the method: as §1

VEGFR2 (KDR) = VEGFR2 (KDR) (Homo sapiens (Human), UniProt P35968); test: VEGFR2 (KDR) enzyme assay, fluorescence polarization; format: biochemical; conditions: 5 μM ATP, poly(Glu, Tyr) substrate
VEGFR2 (KDR), sequence (P35968 20-1356): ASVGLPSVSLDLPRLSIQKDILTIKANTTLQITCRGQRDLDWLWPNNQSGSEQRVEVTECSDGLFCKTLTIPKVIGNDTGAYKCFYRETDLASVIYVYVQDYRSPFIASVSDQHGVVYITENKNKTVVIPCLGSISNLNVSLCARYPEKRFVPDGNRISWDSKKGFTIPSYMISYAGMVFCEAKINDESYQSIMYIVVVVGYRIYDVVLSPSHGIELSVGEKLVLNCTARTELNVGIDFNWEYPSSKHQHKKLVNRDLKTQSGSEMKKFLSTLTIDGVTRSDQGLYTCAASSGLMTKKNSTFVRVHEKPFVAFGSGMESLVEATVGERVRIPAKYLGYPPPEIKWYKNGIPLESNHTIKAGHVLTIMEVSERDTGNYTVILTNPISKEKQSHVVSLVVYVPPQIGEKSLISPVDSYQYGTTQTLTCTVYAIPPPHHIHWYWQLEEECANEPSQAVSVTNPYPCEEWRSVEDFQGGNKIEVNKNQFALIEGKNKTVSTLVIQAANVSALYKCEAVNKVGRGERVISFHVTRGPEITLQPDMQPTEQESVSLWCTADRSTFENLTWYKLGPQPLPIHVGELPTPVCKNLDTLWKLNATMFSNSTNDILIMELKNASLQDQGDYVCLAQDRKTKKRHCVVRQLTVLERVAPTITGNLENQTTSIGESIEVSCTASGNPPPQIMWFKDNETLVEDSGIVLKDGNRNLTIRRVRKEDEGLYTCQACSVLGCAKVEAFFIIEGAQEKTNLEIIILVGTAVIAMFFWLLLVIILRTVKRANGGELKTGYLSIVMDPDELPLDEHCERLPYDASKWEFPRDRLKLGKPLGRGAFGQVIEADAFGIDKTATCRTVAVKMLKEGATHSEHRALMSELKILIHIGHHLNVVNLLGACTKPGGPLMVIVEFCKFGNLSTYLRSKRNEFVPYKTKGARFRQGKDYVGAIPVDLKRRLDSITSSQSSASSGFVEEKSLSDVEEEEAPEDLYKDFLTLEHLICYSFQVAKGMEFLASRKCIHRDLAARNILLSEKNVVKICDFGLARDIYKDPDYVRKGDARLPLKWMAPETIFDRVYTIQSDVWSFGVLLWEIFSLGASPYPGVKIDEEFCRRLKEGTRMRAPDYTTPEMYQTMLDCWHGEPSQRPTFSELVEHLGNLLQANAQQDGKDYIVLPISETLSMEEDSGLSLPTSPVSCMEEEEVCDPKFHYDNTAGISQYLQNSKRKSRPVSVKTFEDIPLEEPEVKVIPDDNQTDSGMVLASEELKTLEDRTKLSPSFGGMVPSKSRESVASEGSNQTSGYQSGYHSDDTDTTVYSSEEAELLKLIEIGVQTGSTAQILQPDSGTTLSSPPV
Summary of the method: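 Autophosphorylation read by fluorescence polarization: VEGFR2 (Proquinase) at 200 ng/10 μl with 5 μM ATP and 10 ng/ml poly(Glu,Tyr) 4:1, in 20 mM HEPES pH 7.4, 5 mM MgCl2, 2 mM MnCl2, 50 μM Na3VO4. Reaction 1 h at room temperature, EDTA stop, then anti-phosphotyrosine antibody/tracer for 30 min in the dark.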

[4] = system: breast cancer cell line, SK-Br3; test: Inhibitory effect on growth of cancer cell line SK-Br3, SRB; format: cell-based; conditions: overexpressed EGFR2 (HER-2)
Summary of the method: as §1

| Structure (SMILES) | IC50 ([1]; Homo sapiens, 96 h) [µM] | IC50 ([2]; Homo sapiens, 72 h) [µM] | IC50 (EGFR1 (HER-1)) [µM] | IC50 ([3]; Homo sapiens, A-431, 72 h) [µM] | IC50 (VEGFR2 (KDR)) [µM] | IC50 ([4]; Homo sapiens, SK-BR-3, 72 h) [µM] | IC50 ([1]; 96 hours) [µM] | IC50 ([2]; 72 hours) [µM] | IC50 ([3]; 72 hours) [µM] | IC50 ([4]; 72 hours) [µM] |
| --- | --- | --- | --- | --- | --- | --- | --- | --- | --- | --- |
| C=CC(=O)Nc1cc2c(Nc3ccc(Br)cc3F)ncnc2cc1OCCNC(C)=O [Example 18, N-[7-(2-acetylamino-ethoxy)-4-(4-bromo-2-fluoro-phenylamino)-quinazolin-6-yl]-acrylamide] | 0.052 | 8.07 | 0.002 | 0.015 | 0.096 | 0.137 | – | – | – | – |
| C=CC(=O)Nc1cc2c(Nc3ccc(Br)cc3F)ncnc2cc1OCCCNC(=O)CC [Example 87, N-[4-(4-bromo-2-fluoro-phenylamino)-7-(3-propionylamino-propoxy)-quinazolin-6-yl]-acrylamide] | 0.692 | 10 | 0.04 | 0.044 | 0.698 | 0.288 | – | – | – | – |
| C=CC(=O)Nc1cc2c(Nc3ccc(Br)cc3F)ncnc2cc1OCCN(C)C [Example 19, N-[4-(4-bromo-2-fluoro-phenylamino)-7-(2-dimethylamino-ethoxy)-quinazolin-6-yl]-acrylamide] | 0.35 | 10 | 0.009 | 0.039 | 0.45 | 0.813 | – | – | – | – |
| CCC(=O)Nc1cc2c(Nc3ccc(Br)cc3F)ncnc2cc1OCCNC(C)=O [Example 77, propionic acid [7-(2-acetylamino-ethoxy)-4-(4-bromo-2-fluoro-phenylamino)-quinazolin-6-yl]-amide] | 0.35 | 10 | 0.866 | 0.951 | 0.365 | 7.8 | – | – | – | – |
| C=CC(=O)Nc1cc2c(Nc3ccc(Br)cc3F)ncnc2cc1OCCNC(=O)C=CCC [Example 52, pent-2-enoic acid {2-[6-acryloylamino-4-(4-bromo-2-fluoro-phenylamino)-quinazolin-7-yloxy]-ethyl}-amide] | 0.35 | 10 | 0.036 | 0.037 | 0.354 | 0.084 | – | – | – | – |
| C=CC(=O)Nc1cc2c(Nc3ccc(F)cc3F)ncnc2cc1OCCNC(=O)CN(C)C [Example 68, N-[4-(2,4-difluorophenylamino)-7-{2-[2-(dimethylamino)-acetylamino]-ethoxy}-quinazolin-6-yl]-acrylamide] | 0.682 | 0.725 | 0.156 | 0.265 | 0.687 | 0.564 | – | – | – | – |
| C=CC(=O)Nc1cc2c(Nc3ccc(Br)cc3F)ncnc2cc1OCCCNC(C)=O [Example 13, N-[7-(3-acetylamino-propoxy)-4-(4-bromo-2-fluoro-phenylamino)-quinazolin-6-yl]-acrylamide] | 0.079 | 10 | 0.004 | 0.028 | 0.157 | 0.045 | – | – | – | – |
| C=CC(=O)Nc1cc2c(Nc3ccc(Br)c(F)c3)ncnc2cc1OCCNC(=O)CN(C)C [Example 79, N-4-(4-bromo-3-fluoro-phenylamino)-7-[2-(2-dimethylamino-acetylamino)-ethoxy]-quinazolin-6-yl-acrylamide] | – | – | 0.078 | – | 1.43 | – | 0.723 | 10 | 0.084 | 0.313 |
| C=CC(=O)Nc1cc2c(Nc3ccc(Br)cc3F)ncnc2cc1OCCCNC(=O)NCC [Example 16, N-{4-(4-bromo-2-fluoro-phenylamino)-7-[3-(3-ethyl-ureido)-propoxy]-quinazolin-6-yl}-acrylamide] | 0.102 | 10 | 0.011 | 0.018 | 0.208 | 0.228 | – | – | – | – |
| C=CC(=O)Nc1cc2c(Nc3ccc(Br)cc3F)ncnc2cc1OCCNC(=O)CSC [Example 46, N-{4-(4-bromo-2-fluoro-phenylamino)-7-[2-(2-methylsulfanyl-acetylamino)-ethoxy]-quinazolin-6-yl}-acrylamide] | 0.656 | 7.52 | 0.039 | 0.035 | 0.635 | 0.198 | – | – | – | – |
| C=CC(=O)Nc1cc2c(Nc3ccc(Br)cc3F)ncnc2cc1OCC1CCN(C(=O)NC(C)(C)C)CC1 [Example 11, 4-[6-acryloylamino-4-(4-bromo-2-fluoro-phenylamino)-quinazolin-7-yloxymethyl]-piperidin-1-carboxylic acid t-butylamide] | 0.041 | 5.68 | 0.014 | 0.059 | 0.05 | 0.456 | – | – | – | – |
| C=CC(=O)Nc1cc2c(Nc3ccc(Br)cc3F)ncnc2cc1OCC1CCN(C(=O)NCCC)CC1 [Example 9, 4-[6-acryloylamino-4-(4-bromo-2-fluoro-phenylamino)-quinazolin-7-yloxymethyl]-piperidin-1-carboxylic acid propylamide] | 0.048 | 2.58 | 0.036 | 0.051 | 0.045 | 0.266 | – | – | – | – |
| C=CC(=O)Nc1cc2c(Nc3ccc(Br)cc3F)ncnc2cc1OCCNC(=O)C(C)N(C)C (stereo not drawn) [Example 58, N-{4-(4-bromo-2-fluoro-phenylamino)-7-[2-(2-dimethylamino-propionylamino)-ethoxy]-quinazolin-6-yl}-acrylamide] | 0.945 | 5.51 | 0.125 | 0.116 | 0.954 | 0.395 | – | – | – | – |
| C=CC(=O)Nc1cc2c(Nc3cc(Cl)c(Cl)cc3F)ncnc2cc1OCCNC(=O)CN(C)C [Example 140, N-{4-(4,5-dichloro-2-fluoro-phenylamino)-7-[2-(2-dimethylamino-acetylamino)-ethoxy]-quinazolin-6-yl}-acrylamide] | 0.756 | 9.54 | 0.009 | 0.008 | 0.751 | 0.057 | – | – | – | – |
| C=CC(=O)Nc1cc2c(Nc3cccc(Cl)c3F)ncnc2cc1OCCNC(=O)CN(C)C [Example 117, N-[4-(3-chloro-2-fluoro-phenylamino)-7-{2-[2-(dimethylamino)-acetamido]-ethoxy}quinazolin-6-yl]-acrylamide] | 0.998 | 10 | 0.924 | 1.24 | 0.945 | 1.26 | – | – | – | – |
| C=CC(=O)Nc1cc2c(Nc3ccc(Br)cc3F)ncnc2cc1OCCCCNC(C)=O [Example 20, N-[7-(4-acetylamino-butoxy)-4-(4-bromo-2-fluoro-phenylamino)-quinazolin-6-yl]-acrylamide] | 0.682 | 10 | 0.01 | 0.045 | 0.545 | 1.1 | – | – | – | – |
| C=CC(=O)Nc1cc2c(Nc3ccc(Br)c(Cl)c3F)ncnc2cc1OCCNC(=O)N1CCOCC1 [Example 41, morpholine-4-carboxylic acid {2-[6-acryloylamino-4-(4-bromo-3-chloro-2-fluoro-phenylamino)-quinazolin-7-yloxy]-ethyl}-amide] | 0.221 | 7.86 | 0.035 | 0.046 | 0.134 | 0.053 | – | – | – | – |
| C=CC(=O)Nc1cc2c(Nc3ccc(Cl)cc3F)ncnc2cc1OCCNC(=O)CN(C)C [Example 116, N-{4-(4-chloro-2-fluoro-phenylamino)-7-[2-(2-dimethylamino-acetylamino)-ethoxy]-quinazolin-6-yl}-acrylamide] | 0.951 | 2.96 | 0.419 | 0.437 | 0.758 | 0.253 | – | – | – | – |
| C=CC(=O)Nc1cc2c(Nc3ccc(Br)cc3F)ncnc2cc1OCCCNC(=O)C(F)(F)F [Example 14, N-{4-(4-bromo-2-fluoro-phenylamino)-7-[3-(2,2,2-trifluoro-acetylamino)-propoxy]-quinazolin-6-yl}-acrylamide] | 0.286 | 10 | 0.059 | 0.097 | 0.591 | 0.057 | – | – | – | – |
| C=CC(=O)Nc1cc2c(Nc3ccc(Br)c(Cl)c3F)ncnc2cc1OCCNC(=O)NC(C)(C)C [Example 54, N-{4-(4-bromo-3-chloro-2-fluoro-phenylamino)-7-[2-(3-t-butyl-ureido)-ethoxy]-quinazolin-6-yl}-acrylamide] | 0.568 | 10 | 0.045 | 0.059 | 0.423 | 0.456 | – | – | – | – |
| C=CC(=O)Nc1cc2c(Nc3ccc(Br)cc3F)ncnc2cc1OCCNC(=O)CN(C)CC [Example 56, N-(4-(4-bromo-2-fluoro-phenylamino)-7-{2-[2-(ethyl-methyl-amino)-acetylamino]-ethoxy}-quinazolin-6-yl)-acrylamide] | 0.691 | 10 | 0.198 | 0.153 | 0.654 | 0.128 | – | – | – | – |
| C=CC(=O)Nc1cc2c(Nc3ccc(Br)cc3F)ncnc2cc1OCCNC(N)=O [Example 24, N-[4-(4-bromo-2-fluoro-phenylamino)-7-(2-ureido-ethoxy)-quinazolin-6-yl]-acrylamide] | 0.09 | 7.6 | 0.004 | 0.04 | 0.25 | 0.075 | – | – | – | – |

From patent US8846699B2, “Quinazoline derivatives as a multiplex inhibitor and method for the preparation thereof” (Hanmi Pharm. Co., Ltd., priority 2005, dated 2014)
